{"source": "patent US20040022789A1", "about": "“Methods and compositions for treating T cell mediated inflammatory/autoimmune diseases and disorders in subjects having a glucocorticoid regulation deficiency” (The Washington University, priority 2002, published 2004)", "assay_type_in_all_cases": "in vivo", "key": {"control mice": {"test_system": "control mice", "assay": "Mortality after anti-CD3ε antibody in control mice pre-treated with mifepristone (GR antagonist)", "procedure": "(§1) Animal husbandry and plasma sampling: Mice were housed on a 12 h/12 h light/dark cycle with ad libitum access to rodent chow. Blood for measurement of corticosterone and cytokines was obtained by rapid retroorbital phlebotomy into heparinized capillary tubes with a total time from first handling the animal to completion of bleeding not exceeding 30 s. Plasma was separated by centrifugation and stored at −80° C. until assay. Unless otherwise noted, all mice used were 6-10 weeks old and of a C57BL/6×129/Sv genetic background.\n(§2) Pharmacologic and antibody treatment: Mice were injected intraperitoneally 100 μg anti-CD3p antibody (145-2C11) diluted in 250 μl PBS. Dexamethasone-treated mice were injected intraperitoneally with 200 μg dexamethasone phosphate just prior to and eight hours after anti-CD3ε antibody challenge. Neutralizing anti-IFNγ antibody (H22, 50 μg) was injected intraperitoneally one day before anti-CD3ε antibody administration as described previously. See, e.g., Ferran, C. et al., Eur. J. Immunol, 21:2349-2353 (1991). Mifepristone (RU 486, Sigma) was dissolved in 100% ethanol (50 mg/ml). Mifepristone-treated mice were given 0.5 mg (diluted in sesame oil) s.c. the night before and one hour prior to inflammatory challenge. […]"}, "IL-2": {"test_system": "IL-2", "assay": "Plasma IL-2 after anti-CD3ε antibody (ELISA)", "details": "TGRko mice; dexamethasone 200 μg before and 8 hours after anti-CD3ε antibody", "procedure": "as §1\nCytokine Measurements: Plasma cytokines were measured according to manufacturer's instructions (Pharmingen).\nas §2"}, "[1]": {"test_system": "adrenalectomized control mice", "assay": "Mortality after anti-CD3ε antibody in adrenalectomized control mice", "procedure": "Adrenalectomy: Mice were adrenalectomized as previously described and rested one week before being subjected to experimentation. See, e.g., Muglia, L. J. et al, J. Clin. Invest., 105:1269-1277 (2000).\nPharmacologic and antibody treatment: Mice were injected intraperitoneally 100 μg anti-CD3p antibody (145-2C11) diluted in 250 μl PBS. Dexamethasone-treated mice were injected intraperitoneally with 200 μg dexamethasone phosphate just prior to and eight hours after anti-CD3ε antibody challenge. Neutralizing anti-IFNγ antibody (H22, 50 μg) was injected intraperitoneally one day before anti-CD3ε antibody administration as described previously. See, e.g., Ferran, C. et al., Eur. J. Immunol, 21:2349-2353 (1991). Mifepristone (RU 486, Sigma) was dissolved in 100% ethanol (50 mg/ml). Mifepristone-treated mice were given 0.5 mg (diluted in sesame oil) s.c. the night before and one hour prior to inflammatory challenge. Cox-2 selective inhibitor-treated mice were given 300 μg of either SC-236 or NS-398 suspended in PBS/1% Tween-80 or vehicle twice a day for two days by oral gavage as previously described by Gross, G. et al, Am J. Physiol. Regul. Integr. Comp. Physiol., 278:R^1415-R^1423 (2000)."}, "TGRko mice": {"test_system": "TGRko mice", "assay": "Mortality of TGRko mice after polyclonal T cell activation with anti-CD3ε antibody", "details": "100 μg anti-CD3ε antibody i.p., treatment before (and after) challenge", "procedure": "as §1\nGeneration of TGRko mice: To build a TGRko targeting vector (pGRloxPneo), a loxP site was inserted into the unique Sac I site in the GR gene region upstream of exon 2 between exons 1B and 1C. A PGKneo (gene encoding for resistance to neomycin) cassette was then subcloned containing flanking loxP sites into intron 2 of the GR gene using oligonucleotide linkers. To obtain ES clones having replaced one copy of the endogenous murine GR locus with the GRloxPneo allele, TC1 ES cells were electroporated in the presence of linearized pGRloxPneo as has previously been described (See, e.g., Muglia, L. J. et al., J. Clin. Invest., 93:2066-2072 (1994)). DNA from 87 G418 resistant embryonic stem cell (ES) clones was analyzed by Southern blot, employing a probe external to the flanking regions within our targeting vector. […]"}}}
{"smiles": "CC#C[C@]1(O)CC[C@H]2[C@@H]3CCC4=CC(=O)CCC4=C3[C@@H](c3ccc(N(C)C)cc3)C[C@@]21C", "note": "[mifepristone]", "values": [{"measurement": "susceptibility to the lethal effects of T cell activation", "setting": "control mice; control mice, mifepristone+vehicle (m/v) compared to vehicle controls (v/v)", "value": "significantly more susceptible"}]}
{"smiles": "C[C@@H]1C[C@H]2[C@@H]3CCC4=CC(=O)C=C[C@]4(C)[C@@]3(F)[C@@H](O)C[C@]2(C)[C@@]1(O)C(=O)CO", "note": "[dexamethasone]", "values": [{"measurement": "plasma IL-2", "setting": "IL-2", "value": "no significant effect"}]}
{"smiles": "NS(=O)(=O)c1ccc(-n2nc(C(F)(F)F)cc2-c2ccc(Cl)cc2)cc1", "note": "[SC-236]", "values": [{"measurement": "mice died within eight hours of anti-CD3ε antibody treatment", "setting": "[1]; ADX+SC-236 (ADX+vehicle 4/5, Sham operated+vehicle 0/3)", "value": "2/6"}, {"measurement": "rescue from mortality", "setting": "[1]; adrenalectomized control mice, shorter timescale", "value": "essentially the same degree of rescue"}, {"measurement": "mortality / lethality after anti-CD3ε antibody administration", "setting": "TGRko mice", "value": "Protection from lethality"}, {"measurement": "protection from mortality", "setting": "control mice; control mice treated with mifepristone+SC-236 (m/s) compared to vehicle-treated counterparts", "value": "significantly protected"}]}
